From patent publication US20100179122A1 (priority 2005, published 2010)
Like-named read-outs stand apart in the source and are kept apart here.

Experiments:
[1] = biological target: T1, mutant HIV reverse transcriptase (K103N mutation) (Human immunodeficiency virus type 1 group M subtype B, UniProt P04585, K690N); experiment: Analogous RT inhibition assay, K103N mutant; format: biochemical
T1 construct: mutations that occur in the reverse transcriptase segment of the pol gene; made in house
Protocol: (§1) 100 μL reaction mixtures were initiated with a combination of primer-template substrate (10 nM final concentration) and dNTPs (0.6 μM dNTPs, 0.75 μM [^3H]-dGTP). The heterodimeric nucleic acid substrate was generated by annealing the DNA primer pD500 (described in Shaw-Reid et al., J. Biol. Chem., 278: 2777-2780; obtained from Integrated DNA Technologies) to t500, a 500 nucleotide RNA template created by in vitro transcription (see Shaw-Reid et al., J. Biol. Chem., 278: 2777-2780). After 1 hour incubation at 37° C., reactions were quenched by 10 μl, streptavidin scintillation proximity assay beads (10 mg/mL, from Amersham Biosciences) in 0.5 M EDTA, pH 8. Microtiter plates were incubated an additional 10 minutes at 37° C. prior to quantification via Topcount (Packard).
(§2) Analogous assays were conducted substituting mutant HIV strains to determine the […] inhibition of compounds of the present invention against mutant HIV reverse transcriptase. In one strain the reverse transcriptase has the Y181C mutation and in the other strain the reverse transcriptase has the K103N mutation. The mutations were generated with the […] site-directed mutagenesis kit (Stratagene). […] The compounds set forth in the other Examples were not tested in the Y181C assay. […] The compounds set forth in the other Examples were not tested in the K103N assay.

[2] = system: acute HIV infection of T-lymphoid cells; experiment: Assay for inhibition of HIV replication (spread assay); format: cell-based; conditions: Human immunodeficiency virus 1; inhibition of acute HIV infection of T-lymphoid cells; read-out: IC95, spread assay
Protocol: An assay for the inhibition of acute HIV infection of T-lymphoid cells (alternatively referred to herein as the “spread assay”) was conducted in accordance with Vacca, J. P. et al., Proc. Natl. Acad. Sci. USA 1994, 91: 4096. […] The compounds set forth in the other Examples were not tested in the spread assay.

[3] = biological target: T2, mutant HIV reverse transcriptase (Y181C mutation) (Human immunodeficiency virus type 1 group M subtype B, UniProt P04585, Y768C); experiment: Analogous RT inhibition assay, Y181C mutant; format: biochemical
T2 construct: mutations that occur in the reverse transcriptase segment of the pol gene; made in house
Protocol: as §1, §2

[4] = reverse transcriptase with K103N mutation, tested up to 20 micromolar, read-out: IC50, K103N mutant assay
[5] = reverse transcriptase with Y181C mutation, tested up to 20 micromolar, read-out: IC50, Y181C mutant assay

Row | SMILES | IC50 [1] [nM] | IC95 [2] [nM] | IC50 [3] [nM] | IC50 [1, 4] [nM] | IC50 [3, 5] [nM]
1 | O=C(Nc1ccccc1F)Nc1[nH]c2ccc(Cl)cc2c1S(=O)(=O)c1ccccc1 [Example 2, N-[5-chloro-3-(phenylsulfonyl)-1H-indol-2-yl]-N-(2-fluorophenyl)urea] | < 1000 | < 1000 |  |  | 
2 | O=C(Nc1[nH]c2ccc(Cl)cc2c1S(=O)(=O)c1ccccc1)C1CC1 [Example 3, N-[5-Chloro-3-(phenylsulfonyl)-1H-indol-2-yl]cyclopropanecarboxamide] | < 1000 | < 1000 | 1000 to 20000 |  | 
3 | CC(=O)OCC(=O)Nc1[nH]c2ccc(Cl)cc2c1S(=O)(=O)c1ccccc1 [Example 5, 2-{[5-chloro-3-(phenylsulfonyl)-1H-indol-2-yl]amino}-2-oxoethyl acetate] | < 1000 | < 1000 | < 1000 |  | 
4 | O=C(CCOc1ccccc1)Nc1[nH]c2ccc(Cl)cc2c1S(=O)(=O)c1ccccc1 [Example 8, N-[5-chloro-3-(phenylsulfonyl)-1H-indol-2-yl]-3-phenoxypropanamide] | > 20000 | < 1000 | > 20000 |  | 
5 | O=C(Nc1[nH]c2ccc(Cl)cc2c1S(=O)(=O)c1ccccc1)C1Cc2ccccc2O1 (stereo not drawn) [Example 10, N-[5-chloro-3-(phenylsulfonyl)-1H-indol-2-yl]-2,3-dihydro-1-benzofuran-2-carboxamide] | < 1000 | < 1000 | < 1000 |  | 
6 | O=C(Nc1[nH]c2ccc(Cl)cc2c1S(=O)(=O)c1ccccc1)C1COc2ccccc2O1 (stereo not drawn) [Example 11, N-[5-chloro-3-(phenylsulfonyl)-1H-indol-2-yl]-2,3-dihydro-1,4-benzodioxine-2-carboxamide] | < 1000 | < 1000 | < 1000 |  | 
7 | CC(C)C(=O)Nc1[nH]c2ccc(Cl)cc2c1S(=O)(=O)c1ccccc1 [Example 15, N-[5-chloro-3-(phenylsulfonyl)-1H-indol-2-yl]-2-methylpropanamide] | 1000 to 20000 | < 1000 | 1000 to 20000 |  | 
8 | CCNCC(=O)Nc1[nH]c2ccc(Cl)cc2c1S(=O)(=O)c1ccccc1 [Example 21, N^1-[5-chloro-3-(phenylsulfonyl)-1H-indol-2-yl]-N^2-ethylglycinamide] | < 1000 | < 1000 | < 1000 |  | 
9 | CCC(C)C(=O)Nc1[nH]c2ccc(Cl)cc2c1S(=O)(=O)c1ccccc1 (stereo not drawn) [Example 26, N-[5-chloro-3-(phenylsulfonyl)-1H-indol-2-yl]-2-methylbutanamide] | 1000 to 20000 | < 1000 | < 1000 |  | 
10 | O=C(Nc1ccc(F)cc1)Nc1[nH]c2ccc(Cl)cc2c1S(=O)(=O)c1ccccc1 [Example 31, N-[5-chloro-3-(phenylsulfonyl)-1H-indol-2-yl]-N′-(4-fluorophenyl)urea] | > 20000 | < 1000 | > 20000 |  | 
11 | O=C(CN1CCC(c2ccncc2)CC1)Nc1[nH]c2ccc(Cl)cc2c1S(=O)(=O)c1ccccc1 [Example 37, N-[5-chloro-3-(phenylsulfonyl)-1H-indol-2-yl]-2-(4-pyridin-4-ylpiperidin-1-yl)acetamide] | > 20000 |  | > 20000 |  | 
12 | O=C(CNCc1cscn1)Nc1[nH]c2ccc(Cl)cc2c1S(=O)(=O)c1ccccc1 [Example 38, N^1-[5-chloro-3-(phenylsulfonyl)-1H-indol-2-yl]-N^2-(1,3-thiazol-4-ylmethyl)glycinamide] | < 1000 |  | < 1000 |  | 
13 | CO[C@@](C(=O)Nc1[nH]c2ccc(Cl)cc2c1S(=O)(=O)c1ccccc1)(c1ccccc1)C(F)(F)F [Example 39, (2R)-N-[5-chloro-3-(phenylsulfonyl)-1H-indol-2-yl]-3,3,3-trifluoro-2-methoxy-2-phenylpropanamide] | < 1000 | < 1000 | < 1000 |  | 
14 | O=C(NCc1cccc(F)c1)Nc1[nH]c2ccc(Br)cc2c1S(=O)(=O)N1CCCC1 [Example 70] |  |  |  | < 1000 | 
15 | O=C(NCc1cccc(Cl)c1)Nc1[nH]c2ccc(Br)cc2c1S(=O)(=O)N1CCCC1 [Example 71, N-[5-bromo-3-(pyrrolidin-1-ylsulfonyl)-1H-indol-2-yl]-N′-(3-chlorobenzyl)urea] |  | < 1000 | 1000 to 20000 | < 1000 | 
16 | O=C(NCc1ccccc1)Nc1[nH]c2ccc(Br)cc2c1S(=O)(=O)N1CCCC1 [Example 72, N-benzyl-N′-[5-bromo-3-(pyrrolidin-1-ylsulfonyl)-1H-indol-2-yl]urea] |  | < 1000 | < 1000 | < 1000 | 

Row | SMILES | IC50 [1] [nM] | IC95 [2] [nM] | IC50 [3] [nM] | IC50 [1, 4] [nM] | IC50 [3, 5] [nM]
17 | O=C(Nc1ccccc1)Nc1[nH]c2ccc(Br)cc2c1S(=O)(=O)N1CCCC1 [Example 73, N-[5-bromo-3-(pyrrolidin-1-ylsulfonyl)-1H-indo1-2-yl]-N′-phenylurea] |  | < 1000 |  | < 1000 | 
18 | CC(C)NC(=O)Nc1[nH]c2ccc(Br)cc2c1S(=O)(=O)N1CCCC1 [Example 74, N-[5-bromo-3-(pyrrolidin-1-ylsulfonyl)-1H-indol-2-yl]-N′-isopropylurea] |  |  |  | < 1000 | 
19 | O=C(Nc1[nH]c2ccc(Br)cc2c1S(=O)(=O)N1CCCC1)NC1CCCC1 [Example 78, N-[5-bromo-3-(pyrrolidin-1-ylsulfonyl)-1H-indol-2-yl]-N′-cyclopentylurea] |  |  | > 20000 | < 1000 | 
20 | O=C(NCc1ccccc1O)Nc1[nH]c2ccc(Br)cc2c1S(=O)(=O)N1CCCC1 [Example 79, N-[5-bromo-3-(pyrrolidin-1-ylsulfonyl)-1H-indol-2-yl]-N′-(2-hydroxybenzyl)urea] |  |  | > 20000 | < 1000 | 
21 | O=C(NCc1ccccn1)Nc1[nH]c2ccc(Br)cc2c1S(=O)(=O)N1CCCC1 [Example 80, N-[5-bromo-3-(pyrrolidin-1-ylsulfonyl)-1H-indol-2-yl]-N′-(pyridin-2-ylmethyl)urea] |  |  | 1000 to 20000 | < 1000 | 
22 | O=C(NCc1cccnc1)Nc1[nH]c2ccc(Br)cc2c1S(=O)(=O)N1CCCC1 [Example 81, N-[5-bromo-3-(pyrrolidin-1-ylsulfonyl)-1H-indol-2-yl]-N′-(pyridin-3-ylmethyl)urea] |  |  | 1000 to 20000 | < 1000 | 
23 | O=C(NCc1cncs1)Nc1[nH]c2ccc(Br)cc2c1S(=O)(=O)N1CCCC1 [Example 83, N-[5-bromo-3-(pyrrolidin-1-ylsulfonyl)-1H-indol-2-yl]-N′-(1,3-thiazol-5-ylmethyl)urea] |  |  | 1000 to 20000 | < 1000 | 
24 | O=C(Nc1[nH]c2ccc(Br)cc2c1S(=O)(=O)N1CCCC1)N1CCCC1 [Example 84, N-[5-bromo-3-(pyrrolidin-1-ylsulfonyl)-1H-indol-2-yl]pyrrolidine-1-carboxamide] |  |  |  | < 1000 | > 20000
25 | O=C(NCCc1ccccc1)Nc1[nH]c2ccc(Br)cc2c1S(=O)(=O)N1CCCC1 [Example 85, N-[5-bromo-3-(pyrrolidin-1-ylsulfonyl)-1H-indol-2-yl]-N′-(2-phenylethyl)urea] |  |  |  | < 1000 | > 20000
26 | NC(=O)C1CCCN(C(=O)Nc2[nH]c3ccc(Br)cc3c2S(=O)(=O)N2CCCC2)C1 (stereo not drawn) [Example 87, N^1-[5-bromo-3-(pyrrolidin-1-ylsulfonyl)-1H-indol-2-yl]piperidine-1,3-dicarboxamide] |  |  |  | < 1000 | > 20000
27 | O=C(NCCc1ccccn1)Nc1[nH]c2ccc(Br)cc2c1S(=O)(=O)N1CCCC1 [Example 88, N-[5-bromo-3-(pyrrolidin-1-ylsulfonyl)-1H-indol-2-yl]-N′-(2-pyridin-2-ylethyl)urea] | 1000 to 20000 |  |  |  | > 20000
28 | CN1CCN(C(=O)Nc2[nH]c3ccc(Br)cc3c2S(=O)(=O)N2CCCC2)CC1 [Example 91, N-[5-bromo-3-(pyrrolidin-1-ylsulfonyl)-1H-indol-2-yl]-4-methylpiperazine-1-carboxamide] | 1000 to 20000 |  |  |  | > 20000
29 | CC(C)(C)CCNC(=O)Nc1[nH]c2ccc(Br)cc2c1S(=O)(=O)N1CCCC1 [Example 92, N-[5-bromo-3-(pyrrolidin-1-ylsulfonyl)-1H-indol-2-yl]-N′-(3,3-dimethylbutyl)urea] | > 20000 |  |  |  | > 20000
30 | O=C(NCCNc1ccccc1)Nc1[nH]c2ccc(Br)cc2c1S(=O)(=O)N1CCCC1 [Example 93, N-(2-anilinoethyl)-N′-[5-bromo-3-(pyrrolidin-1-ylsulfonyl)-1H-indol-2-yl]urea] | 1000 to 20000 |  |  |  | > 20000
31 | CN(C)CCCNC(=O)Nc1[nH]c2ccc(Br)cc2c1S(=O)(=O)N1CCCC1 [Example 94, N-[5-bromo-3-(pyrrolidin-1-ylsulfonyl)-1H-indol-2-yl]-N′-[3-(dimethylamino)propyl]urea] | < 1000 |  | 1000 to 20000 |  | 
